Test results: patent EP1242382B1, “TRICYCLIC PROTEIN KINASE INHIBITORS” (Wyeth, priority 1999, dated 2001)
Converted amounts (≈) assume the structure as drawn.

How the values were obtained:
MDA-MB-435 = experiment: Inhibition of cancer cell growth as measured by cell number (Sulforhodamine B); type: cell-based; settings: Homo sapiens, 48 hours exposure
Protocol: (§1) Human tumor cell lines are plated in 96-well plates (250 µl/well, 1-6 x 10^4 cells/ml) in RPMI 1640 medium, containing 5% FBS (Fetal Bovine Serum). Twenty four hours after plating, test compounds are added at various concentrations. After 48 hours exposure to test compounds, cells are fixed with trichloroacetic acid, and stained with Sulforhodamine B. After washing with trichloroacetic acid, bound dye is solubilized in 10 mM Tris base and optical density is determined using plate reader. Under conditions of the assay the optical density is proportional to the number of cells in the well. […] The test procedure is described in detail by Philip Skehan et. al, J. Natl. Canc. Inst., 82, 1107-1112 (1990). […] Information about some of the cell lines used in these test procedures is available from the American Type Tissue Collection: Cell Lines and Hybridomas, 1994 Reference Guide, 8th Edition.

A431 = experiment: as above; type: cell-based; settings: Homo sapiens, A-431; 48 hours exposure
Protocol: as §1

SW620 = experiment: as above; type: cell-based; settings: Homo sapiens, SW-620; 48 hours exposure
Protocol: as §1

SK-BR3 = experiment: as above; type: cell-based; settings: Homo sapiens, SK-BR-3; 48 hours exposure
Protocol: as §1

[1] = test system: Human adenocarcinoma cell line LoVo; experiment: Cell based screen for inhibitors of Raf kinase, quantitative assay; settings: 96 h, four days incubation
Protocol: (§2) • Cell Lines: Human adenocarcinoma cell line LoVo which is known to be growth inhibited by low nM concentrations of a reference standard inhibitor of Ras and human adenocarcinoma cell line CaCo-2, which is known to be growth resistant to the same reference compound. • Cell Media : RPMI 1640 with 10% Fetal Bovine Serum supplemented with L-glutamine and Pennicilin/Streptomycin. • Compounds: Supplied usually as a 10 mM stock in 100% DMSO. • Normal Saline: 150 mM NaCl • Trichloroacetic Acid (TCA): 50% (w/v) in water • Sulforhodamine B (SRB): 0.4% (w/v) in 1% Acetic Acid • Tris Base: 10 mM in water
(§3) Cells are plated at 2000 cells per well for cell line LoVo and 1500 cells for cell line CaCo-2 in 96 well plates. Cells are plated in media (200 µl) and allowed to adhere overnight at 37°C. At 24 hours post plating, compounds are added directly at a volume of 0.5 µl. For the qualitative screen (compounds screened at 25 µM) compound is added directly to cells. For the quantitative screen, compound is first diluted in DMSO to generate concentrations of compound or reference standard of: 1, 5, 10 and 25 µM. It is advisable to make the dilutions in an identical 96 well plate so that compounds can be added using a multichannel micropipettor set at 0.5 µl. The cells are then incubated for four days after which the media is removed using a 12 well manifold by first tipping the plate forward at a 45 degree angle and then inserting the manifold in an upright orientation to prevent the tips of the manifold from disturbing cells at the bottom of the plate. 200 µl of normal saline is then added to each well using an 8 well multichannel pipettor, followed by the careful addition of 50 µl of 50% TCA. The plates are then incubated for 2 hours at 4°C, after which the supernatant is removed using the same technique as above and the plated washed twice with 200 µl water. The plates are then air dried and 50 µl of SRB stock solution is carefully added so that the entire bottom of each well is covered. This again can be used using an 8 well multichannel pipettor. The SRB is incubated with fixed cells for 15 minutes at room temperature after which the SRB is removed with the manifold as described above and the plates washed twice with 350 µl of 1% acetic acid per well each time. The plates are then air dried after which the bound SRB is released from protein by the addition of 200 µl of Tris base. Resolubilizing the SRB is aided by placing the plates on a rotator for 15-30 minutes. The absorbance of each well is determined at 550 or 562 nm using a microtiter plate reader.
(§4) Each compound or dilution thereof is performed in triplicate. Outliers are identified by visual inspection of the data. Each plate should have a "0" control (vehicle only).
(§5) Quantitative Assay: A standard curve is constructed by plotting the concentration of compound against the average absorbance calculated at that concentration. […] Multiple entries for a given compound indicate that it is tested multiple times.

[2] = test system: human adenocarcinoma cell line CaCo-2; experiment: as above; settings: Caco-2, 96 h, four days incubation
Protocol: as §2, §3, §4, §5

Q: What does the source list for `COc1cc2cc3c(Nc4ccc(OCc5ccccc5)c(Cl)c4)c(C#N)cnc3cc2cc1OCCN1CCOCC1` [Example 218, 4-(4-Benzyloxy-3-chlorophenylamino)-7-methoxy-8-(2-morpholin-4-yl-ethoxy)benzo[g]quinoline-3-carbonitrile]?
A: IC50 (MDA-MB-435): 33.5 µg/mL (≈ 56.3 µM); IC50 (A431): 4.7 µg/mL (≈ 7.9 µM); IC50 (SW620): 11.6 µg/mL (≈ 19.5 µM); IC50 (SK-BR3): 3.5 µg/mL (≈ 5.88 µM); IC50 [1]: 0.43 µM; IC50 [2]: 6 µM
